Laboratory results: patent US20060276464A1, “Diarylsulfone sulfonamides and use thereof” (Wyeth, priority 2005, published 2006)
Read-outs that look alike come from different tables or passages of the source.

Molecular target: T1, SFRP-1 (Homo sapiens, UniProt Q8N474)
T1 sequence (Q8N474 32-314): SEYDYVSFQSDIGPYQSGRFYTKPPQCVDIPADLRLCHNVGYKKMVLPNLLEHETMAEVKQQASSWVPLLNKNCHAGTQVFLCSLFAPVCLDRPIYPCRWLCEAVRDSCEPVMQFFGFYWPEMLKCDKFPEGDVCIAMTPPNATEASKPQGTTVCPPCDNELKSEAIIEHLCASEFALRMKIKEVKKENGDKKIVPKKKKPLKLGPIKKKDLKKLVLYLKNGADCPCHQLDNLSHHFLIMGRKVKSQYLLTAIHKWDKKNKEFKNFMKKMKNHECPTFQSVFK
Assay: Cell-based assay for in vitro measurement of SFRP-1/SARP2 antagonist activity (U2OS cells co-transfected with 16x TCF-tk-Luciferase reporter, Wnt and hSFRP-1);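 note: U2OS cells co-transfected with a TCF-tk luciferase reporter, a Wnt vector, hSFRP-1 or empty vector and CMV-βgal, luciferase luminescence read in cell lysates alongside βgal activity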
Settings: U2OS

[1] = read-out: Fold Induction with SFRP-1, Conc 15 μM, with SFRP-1, fold induction over SFRP-1 control, single dose
[2] = read-out: Fold Induction without SFRP-1, Conc 15 μM, without SFRP-1, single dose

SMILES	fold induction at 15 µM [1]	fold induction at 15 µM [2]	fold induction at 60 µM (read-out: Fold Induction with SFRP-1, Conc 60 μM, with SFRP-1, fold induction over SFRP-1 control, single dose)	fold induction at 60 µM (read-out: Fold Induction without SFRP-1, Conc 60 μM, without SFRP-1, single dose)
Cc1ccc(S(=O)(=O)c2ccc(N=[N+]=[N-])cc2)cc1S(=O)(=O)NCCCn1ccnc1 [Example 293, 5-[(4-azidophenyl)sulfonyl]-N-[3-(1H-imidazol-1-yl)propyl]-2-methylbenzenesulfonamide]	2.5	0.9		
Cc1ccc(S(=O)(=O)c2ccccc2)cc1S(=O)(=O)NCCc1c[nH]c2ccccc12 [Example 294, N-[2-(1H-indol-3-yl)ethyl]-2-methyl-5-(phenylsulfonyl)benzenesulfonamide]	2.3	1.5		
CCc1ccc(S(=O)(=O)c2ccccc2)cc1S(=O)(=O)NC1CCOCC1 [Example 300, 2-ethyl-5-(phenylsulfonyl)-N-tetrahydro-2H-pyran-4-ylbenzenesulfonamide]	3.4	1.2		
Cc1c(S(=O)(=O)NCCc2ccccc2)cccc1S(=O)(=O)c1ccccc1 [Example 302, 2-methyl-N-(2-phenylethyl)-3-(phenylsulfonyl)benzenesulfonamide]	1.2	1.2		
CCN(C)c1ccc(S(=O)(=O)c2ccc(C)c(S(=O)(=O)NCCCn3ccnc3)c2)cc1 [Example 304, 5-({4-[ethyl(methyl)amino]phenyl}sulfonyl)-N-[3-(1H-imidazol-1-yl)propyl]-2-methylbenzenesulfonamide]	1.7	1		
Cc1ccc(S(=O)(=O)c2ccc(N3CCCC3)cc2)cc1S(=O)(=O)NCCCn1ccnc1 [Example 305, N-[3-(1H-imidazol-1-yl)propyl]-2-methyl-5-[(4-pyrrolidin-1-ylphenyl)sulfonyl]benzenesulfonamide]	1.8	1		
Cc1ccc(S(=O)(=O)NCCCn2ccnc2)cc1[S+]([O-])c1ccccc1 (stereo not shown) [Example 306, N-[3-(1H-imidazol-1-yl)propyl]-4-methyl-3-(phenylsulfinyl)benzenesulfonamide]			1.3	0.9
Cc1ccc(S(=O)(=O)c2ccc(F)cc2)cc1S(=O)(=O)NCCn1ccnc1 [Example 307, 5-[(4-fluorophenyl)sulfonyl]-N-[2-(1H-imidazol-1-yl)ethyl]-2-methylbenzenesulfonamide]	2.5	0.9		
Cc1ccc(S(=O)(=O)c2ccc(N3CCCCC3)cc2)cc1S(=O)(=O)NCCCn1ccnc1 [Example 312, N-[3-(1H-imidazol-1-yl)propyl]-2-methyl-5-[(4-piperidin-1-ylphenyl)sulfonyl]benzenesulfonamide]	1.6	0.9		
COc1ccc(S(=O)(=O)c2ccc(C)c(S(=O)(=O)NCCCn3ccnc3)c2)cc1 [Example 315, N-[3-(1H-imidazol-1-yl)propyl]-5-[(4-methoxyphenyl)sulfonyl]-2-methylbenzenesulfonamide]	1.8	1.3		

Now from value to compound:

fold induction at 15 µM [1]	fold induction at 15 µM [2]	fold induction at 60 µM (read-out: Fold Induction with SFRP-1, Conc 60 μM, with SFRP-1, fold induction over SFRP-1 control, single dose)	fold induction at 60 µM (read-out: Fold Induction without SFRP-1, Conc 60 μM, without SFRP-1, single dose)	SMILES
3.1	1.1			Cc1ccc(S(=O)(=O)c2ccccc2)cc1S(=O)(=O)NCCC1CCOCC1 [Example 299, 2-methyl-5-(phenylsulfonyl)-N-(2-tetrahydro-2H-pyran-4-ylethyl)benzenesulfonamide]
3.3	1.2			CCc1ccc(S(=O)(=O)c2ccccc2)cc1S(=O)(=O)NCCC1CCOCC1 [Example 301, 2-ethyl-5-(phenylsulfonyl)-N-(2-tetrahydro-2H-pyran-4-ylethyl)benzenesulfonamide]
2.3	0.9			Cc1ccc(S(=O)(=O)c2ccc(F)cc2)cc1S(=O)(=O)NC1CCOCC1 [Example 308, 5-[(4-fluorophenyl)sulfonyl]-2-methyl-N-tetrahydro-2H-pyran-4-ylbenzenesulfonamide]
1.9	0.9			Cc1ccc(S(=O)(=O)c2ccc(F)cc2)cc1S(=O)(=O)NCCC1CCOCC1 [Example 309, 5-[(4-fluorophenyl)sulfonyl]-2-methyl-N-(2-tetrahydro-2H-pyran-4-ylethyl)benzenesulfonamide]
